{
  "source": "patent US9926299B2",
  "about": "“Inhibitors of bruton's tyrosine kinase” (Centaurus BioPharma Co., Ltd., priority 2012, dated 2018)",
  "key": {"BTK kinase": {"target": "BTK kinase (Homo sapiens (Human), UniProt Q06187)", "sequence (Q06187 whole entry)": "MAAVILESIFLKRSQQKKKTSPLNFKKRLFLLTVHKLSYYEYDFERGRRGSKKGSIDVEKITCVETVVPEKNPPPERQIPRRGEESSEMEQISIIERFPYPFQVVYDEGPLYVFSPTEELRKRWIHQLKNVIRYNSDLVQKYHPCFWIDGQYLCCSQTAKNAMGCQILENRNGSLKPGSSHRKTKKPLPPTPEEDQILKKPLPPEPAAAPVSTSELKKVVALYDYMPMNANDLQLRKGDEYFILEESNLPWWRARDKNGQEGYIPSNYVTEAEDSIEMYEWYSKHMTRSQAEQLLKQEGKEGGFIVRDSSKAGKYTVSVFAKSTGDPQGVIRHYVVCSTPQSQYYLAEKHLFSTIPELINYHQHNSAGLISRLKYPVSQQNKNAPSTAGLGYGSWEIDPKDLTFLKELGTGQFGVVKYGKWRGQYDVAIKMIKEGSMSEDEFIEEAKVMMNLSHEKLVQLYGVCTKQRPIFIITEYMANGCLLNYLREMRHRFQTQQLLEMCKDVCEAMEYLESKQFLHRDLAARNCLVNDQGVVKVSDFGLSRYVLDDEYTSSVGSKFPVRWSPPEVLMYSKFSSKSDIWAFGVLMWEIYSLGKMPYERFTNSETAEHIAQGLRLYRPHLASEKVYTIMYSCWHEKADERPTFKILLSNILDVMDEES", "test": "Btk kinase enzymatic assay (HTRF)", "type": "biochemical", "conditions": "ATP at Km", "procedure": "Btk kinase activity was determined using a Homogeneous Time-Resolved Fluorescence (HTRF) methodology (Cisbio). […] The mixture was centrifuged and incubated for 5 min. […] For each compound, enzyme activity was measured at various concentrations of compound, and IC50s were obtained by GraFit Software 6.0 (Erithacus Software)."}, "Ramos cells": {"tested_on": "Ramos cells", "test": "BCR-induced calcium flux fluorescence-based assay in Ramos cells", "conditions": "Ramos cells stimulated with goat anti-human IgM antibody; read-out: Ramos Cell Ca Flux IC50", "procedure": "Calcium flux fluorescence-based assays were performed using Fluo-4 Direct™ Calcium Assay Kits (purchased from Invitrogen) in a FlexStation III (purchased from Molecular Devices) according to manufacturer instructions. In brief, actively growing Romas cells in RPM1-1640 medium (purchased from Invitrogen) supplemented with 10% FBS (purchased from Hyclone) were washed and re-plated in low serum medium at approximately 1×10^5 cells per 45 μL per well in a 96-well plate (purchased from Corning), then added 45 μL of dye (purchased from Invitrogen) and incubated at 37 degree for 1 hour. Compounds to be assayed were dissolved and 3-fold serially diluted in DMSO and then diluted by 100 times in low serum medium. Then 10 μL of the diluted mixture were added to the above 96-well plate (final DMSO concentration was 0.1%) and incubated at 37 degree in 5% CO2 incubator for 0.5 hour. The compound-treated cells were stimulated with a goat anti-human IgM antibody (10 μg/ml; purchased from SouthernBiotech) and read in the FlexStation III using a λEx=494 nM and […] for 90 seconds. The relative fluorescence unit (RFU) and the IC50 were recorded and analyzed using a GraphPad Prism 5 (GraphPad Software)."}},
  "data": [
    {"smiles": "C=CC(=O)N1CC[C@@H](n2nc(-c3ccc(Oc4cccc(OC)c4)cc3)c(C(N)=O)c2N)C1", "note": "[Example 42, (R)-1-(1-acryloylpyrrolidin-3-yl)-5-amino-3-(4-(3-methoxyphenoxyl)phenyl)-1H-pyrazole-4-carboxamide]", "values": [
      {"measurement": "IC50", "setting": "BTK kinase", "result": "< 100", "unit": "nM"},
      {"measurement": "IC50", "setting": "Ramos cells", "result": "< 100", "unit": "nM"}
    ]},
    {"smiles": "C=CC(=O)N1CC[C@@H](n2nc(-c3ccc(Oc4cccc(C(F)(F)F)c4)cc3)c(C(N)=O)c2N)C1", "note": "[Example 44, (R)-1-(1-acryloylpyrrolidin-3-yl)-5-amino-3-(4-(3-(trifluoromethyl)phenoxy)phenyl)-1H-pyrazole-4-carboxamide]", "values": [
      {"measurement": "IC50", "setting": "BTK kinase", "result": "< 100", "unit": "nM"},
      {"measurement": "IC50", "setting": "Ramos cells", "result": "< 100", "unit": "nM"}
    ]},
    {"smiles": "C=CS(=O)(=O)N(C)CCn1nc(-c2ccc(Oc3ccccc3)cc2)c(C(N)=O)c1N", "note": "[Example 33, 5-amino-1-(2-(N-methylvinylsulfonamido)ethyl)-3-(4-phenoxyphenyl)-1H-pyrazole-4-carboxamide]", "values": [
      {"measurement": "IC50", "setting": "BTK kinase", "result": "< 100", "unit": "nM"},
      {"measurement": "IC50", "setting": "Ramos cells", "result": "< 100", "unit": "nM"}
    ]},
    {"smiles": "C=CS(=O)(=O)N1CCCC(n2nc(-c3ccc(Oc4ccccc4)cc3)c(C(N)=O)c2N)C1", "note": "(stereo not drawn) [Example 27, 5-amino-3-(4-phenoxyphenyl)-1-(1-(vinylsulfonyl)piperidin-3-yl)-1H-pyrazole-4-carboxamide]", "values": [
      {"measurement": "IC50", "setting": "BTK kinase", "result": "< 100", "unit": "nM"},
      {"measurement": "IC50", "setting": "Ramos cells", "result": "< 100", "unit": "nM"}
    ]},
    {"smiles": "NC(=O)c1c(-c2ccc(Oc3ccccc3)cc2)nn(C2CCCN(C(=O)CCl)C2)c1N", "note": "(stereo not drawn) [Example 28, 5-amino-1-(1-(2-chloroacetyl)piperidin-3-yl)-3-(4-phenoxyphenyl)-1H-pyrazole-4-carboxamide]", "values": [
      {"measurement": "IC50", "setting": "BTK kinase", "result": "< 100", "unit": "nM"},
      {"measurement": "IC50", "setting": "Ramos cells", "result": "< 100", "unit": "nM"}
    ]},
    {"smiles": "C=CC(=O)N1CC[C@@H](n2nc(-c3ccc(Oc4cc([N+](=O)[O-])ccc4C)cc3)c(C(N)=O)c2N)C1", "note": "[Example 47, (R)-1-(1-acryloylpyrrolidin-3-yl)-5-amino-3-(4-(2-methyl-5-nitrophenoxy)phenyl)-1H-pyrazole-4-carboxamide]", "values": [
      {"measurement": "IC50", "setting": "BTK kinase", "result": "< 100", "unit": "nM"},
      {"measurement": "IC50", "setting": "Ramos cells", "result": "< 100", "unit": "nM"}
    ]},
    {"smiles": "C=CC(=O)N(C)CCn1nc(-c2ccc(Oc3ccccc3)cc2)c(C(N)=O)c1N", "note": "[Example 30, 5-amino-1-(2-(N-methylacrylamido)ethyl)-3-(4-phenoxyphenyl)-1H-pyrazole-4-carboxamide]", "values": [
      {"measurement": "IC50", "setting": "BTK kinase", "result": "< 100", "unit": "nM"},
      {"measurement": "IC50", "setting": "Ramos cells", "result": "< 100", "unit": "nM"}
    ]},
    {"smiles": "C=CS(=O)(=O)N1CCC[C@@H](n2nc(-c3ccc(Oc4ccccc4)cc3)c(C(N)=O)c2N)C1", "note": "[27 (R-isomer)]", "values": [
      {"measurement": "IC50", "setting": "BTK kinase", "result": "< 100", "unit": "nM"},
      {"measurement": "IC50", "setting": "Ramos cells", "result": "< 100", "unit": "nM"}
    ]},
    {"smiles": "CN(CCn1nc(-c2ccc(Oc3ccccc3)cc2)c(C(N)=O)c1N)C(=O)CCl", "note": "[Example 34, 5-amino-1-(2-(2-chloro-N-methylacetamido)ethyl)-3-(4-phenoxyphenyl)-1H-pyrazole-4-carboxamide]", "values": [
      {"measurement": "IC50", "setting": "BTK kinase", "result": "< 100", "unit": "nM"},
      {"measurement": "IC50", "setting": "Ramos cells", "result": "< 100", "unit": "nM"}
    ]}
  ]
}
